Test results from patent publication US8410309B2, “Phenoxy carboxylic acid compounds and compositions for delivering active agents” (Emisphere Technologies, Inc., priority 1999, dated 2013).
Where “and” joins values, the source holds several entries; their conditions need not be identical. Equal entries are not always repeated.

How the values were obtained:
[1] = Recombinant human growth hormone (rhGH) oral delivery, serum rhGH by immunoassay; details: oral gavage, rats, volume dose 1 ml
[2] = Salmon calcitonin (sCT) oral delivery, serum sCT by EIA; details: rats, delivery agent compound dose 150 mg/kg, sCT dose 30 μg/kg
Procedure: Oral dosing (PO) compositions of a delivery agent compound and salmon calcitonin (sCT) in deionized water were prepared as described in Table 2 below. […] Either the sodium salt of the compound was used or the free acid was converted to the sodium salt by stirring the resultant solution and adding one equivalent of sodium hydroxide (1.0 N) and diluting with water. The solution was vortexed, then heated (about 37° C.) and sonicated. The pH was adjusted to about 7 (about 6.5 to 8.5) with NaOH or HCl. 90 μg sCT from a sCT stock solution (2 mg/ml made by adding 10001 pH 4 phosphate buffer to sCT and allowing it to go into solution by sitting for about 10-20 minutes and periodically gently inverting) was added to the solution.
The typical dosing and sampling protocols were as follows. Male Sprague-Dawley rats weighing between 200-250 g were fasted for 24 hours and administered ketamine (44 mg/kg) and chlorpromazine (1.5 mg/kg) 15 minutes prior to dosing and again as needed to maintain anesthesia. A dosing group of five animals was administered one of the dosing solutions. For oral dosing, an 11 cm Rusch 8 French catheter was adapted to a 1 ml syringe with a pipette tip. The syringe was filled with dosing solution by drawing the solution through the catheter, which was then wiped dry. The catheter was placed down the esophagus leaving 1 cm of tubing past the incisors. Solution was administered by pressing the syringe plunger.
Blood samples were collected serially from the tail artery, typically at time=0, 10, 20, 30, 60 and 90 minutes. […] Numbers were adjusted according to baseline values obtained at time=0. The results from the animals in each dosing group were averaged for each time point.

[3] = Heparin oral/intracolonic delivery, clotting time by activated partial thromboplastin time (APTT); assay type: in vivo, Sprague-Dawley rats; details: IC (intracolonic), rats; delivery agent compound 50 mg/kg, heparin 25 mg/kg, volume dose 1 ml; baseline about 20 seconds
Procedure: Oral gavage (PO) and/or intracolonic (IC) dosing solutions containing a delivery agent compound and heparin sodium USP were prepared in 25% aqueous propylene glycol. […] This dry mixture was dissolved in 25% v/v aqueous propylene glycol, vortexed, and placed in a sonicator (about 37° C.). The pH was adjusted to about 7 (6.5 to 8.5) with aqueous NaOH (2N). The dosing solution was sonicated to produce a clear solution. The final volume was adjusted to about 3.0 ml.
(§1) The typical dosing and sampling protocols were as follows. […] The dosing solution was expressed slowly into the colon by pressing the syringe plunger.
Citrated blood samples were collected by cardiac puncture following the administration of ketamine (88 mg/kg), typically at 0.25, 0.5, 1.0 and 1.5 hours after dosing. Heparin absorption was verified by an increase in clotting time measured by the activated partial thromboplastin time (APTT) according to the method of Henry, J. B., Clinical Diagnosis and Management by Laboratory Methods, Philadelphia, Pa., W.B. Saunders (1979). Previous studies indicated baseline values of about 20 seconds.

[4] = Insulin oral delivery, serum human insulin by ELISA; details: rats
Procedure: Oral dosing (PO) compositions of delivery agent compound and human zinc insulin (minimum 26 IU/mg available from Calbiochem—Novabiochem Corp, La Jolla, Calif.) were prepared in deionized water. […] The pH was adjusted to about 7 to 8.5 with NaOH or HCl. […] The final delivery agent compound dose, insulin dose and dose volume amounts are listed below in Table 8.
The typical dosing and sampling protocols were as follows.
Serum insulin levels were determined with an Insulin ELISA Test Kit (Kit # DSL-10-1600 from Diagnostic Systems Laboratories, Inc., Webster, Tex.), modifying the standard protocol in order to optimize the sensitivity and linear range of the standard curve for the volumes and concentrations of the samples used in the present protocol. […] The five values for each time point were averaged and the results plotted as serum insulin concentration versus time.

[5] = Low molecular weight heparin (LMWH) oral/intracolonic delivery, plasma LMWH by anti-Factor Xa assay; assay type: in vivo, Sprague-Dawley rats; details: IC, rats, LMWH 750 IU/kg, 1 ml/kg
Procedure: Oral dosing (PO) and/or intracolonic (IC) compositions containing a delivery agent compound and low molecular weight heparin (LMWH) were prepared in 25% aqueous propylene glycol. […] Typically, the delivery agent compound and LMWH (Parnaparin, 91 IU/mg average molecular weight about 5,000, available from Opocrin, Modena, Italy) (typically 90-105 IU/mg, average molecular weight about 5,000) were mixed by vortex as dry powders. This dry mixture was dissolved in 25% v/v aqueous propylene glycol, vortexed, and placed in a sonicator (37° C.) to produce a clear solution. The pH was adjusted to about 7 (6.5-8.5) with 2N aqueous NaOH. The dosing solution was sonicated to produce a clear solution. The final volume was adjusted to 3.0 ml.
as §1
Citrated blood samples were collected by cardiac puncture following the administration of ketamine (88 mg/kg), typically at 0.5, 1.0, 2.0, 3.0 and 4.0 hours after dosing. LMWH absorption was verified by an increase in plasma LMWH measured by the anti-Factor Xa assay CHROMOSTRATE™ Heparin anti-Xa assay (available from Organon Teknika Corporation, Durham, N.C.). […] The peak of these mean plasma LMWH concentrations is reported below in Table 5.

[6] = delivery agent compound 200 mg/kg, rhGH 3 mg/kg
[7] = delivery agent compound 200 mg/kg, insulin 0.5 mg/kg, 1 ml/kg
[8] = delivery agent compound 50 mg/kg
[9] = delivery agent compound 25 mg/kg

Structure (SMILES) | Mean Peak Serum [rhGH] [1, 6] | Mean Peak APTT ± SD [3] | Mean Peak Serum [INS] ± SD [4, 7] | Mean Peak Plasma LMWH Concentration ± SD [5, 8] | other results
O=C(O)CCCOc1ccccc1O [Compound 4] | 12.6 ng/mL | 40.3 ± 17.8 s and 23.076 ± 4.72 s and 37.148 ± 39.67 s | – | – | Mean Peak Serum sCT (pg/ml ± SD) (SE) ([2]; dose volume 1 (ml), 150 mg/kg): 187 ± 177 pg/mL and 195 ± 436 pg/mL
O=C(O)CCCCCCCCCOc1ccccc1O [Compound 8] | 4.88 ng/mL | 251.94 ± 67.96 s | 13.14 ± 6.81 μU/ml | – | Mean Peak Serum sCT (pg/ml ± SD) (SE) ([2]; dose volume 1 (ml), 150 mg/kg): 166 ± 190 pg/mL and 194 ± 239 pg/mL and 327 ± 323 pg/mL; Mean Peak Serum sCT (pg/ml ± SD) (SE) ([2]; dose volume 2 (ml)): 36 ± 49 pg/mL
CC(=O)c1ccccc1OCCCC(=O)O [Compound 9] | 1 ng/mL | 21.45 ± 1.71 s | – | 0.474 ± 0.095 IU/ml | –
CC=Cc1ccccc1OCCCCCCCC(=O)O [Compound 18] | 223 ng/mL | – | – | – | Mean Peak Serum [rhGH] ([1]; delivery agent compound 162 mg/kg, rhGH 2.6 mg/kg): 3.1 ng/mL; Mean Peak Serum sCT (pg/ml ± SD) (SE) ([2]; dose volume 2 (ml)): 14 ± 4183 pg/mL
Nc1ccccc1OCCCCCCCC(=O)O [Compound 19] | 39.5 ng/mL | – | 4.32 ± 1.39 μU/ml | 0.65 ± 0.37 IU/ml | –
O=C(O)CCCCCCCOc1ccccc1[N+](=O)[O-] [Compound 20] | 22.6 ng/mL | – | 27.68 ± 12.5 μU/ml | – | Mean Peak Serum sCT (pg/ml ± SD) (SE) ([2]; dose volume 1 (ml), 150 mg/kg): 138 ± 107 pg/mL and 85 ± 82 pg/mL and 96 ± 135 pg/mL
Nc1ccccc1OCCCCC(=O)O [Compound 21] | 19.6 ng/mL | – | 14.46 ± 21.61 μU/ml | – | –
Nc1cc(Cl)ccc1OCCCCCCCC(=O)O [Compound 22] | 0 ng/mL | 287.9 ± 120.1 s | 24.16 ± 28.11 μU/ml | 1.842 ± 0.205 IU/ml | Mean Peak Plasma LMWH Concentration ± SD ([5]; delivery agent compound 10 mg/kg): 0.396 ± 0.153 IU/ml; Mean Peak Plasma LMWH Concentration ± SD [5, 9]: 1.496 ± 0.153 IU/ml
Nc1cc(Cl)ccc1OCCCCC(=O)O [Compound 23] | – | – | – | – | Mean Peak Serum sCT (pg/ml ± SD) (SE) ([2]; dose volume 1 (ml), 150 mg/kg): 161 ± 150 pg/mL and 122 ± 273 pg/mL
CC(=O)Nc1ccccc1OCCCCCCCC(=O)O [Compound 24] | 1.76 ng/mL | – | – | – | –
CCC(=O)c1ccccc1OCCCC(=O)O [Compound 26] | 8.3 ng/mL | 76.7 s and 41.534 ± 25.56 s | – | 0.262 ± 0.106 IU/ml | Mean Peak Serum [INS] ± SD ([4]; delivery agent compound 100 mg/kg, insulin 3 mg/kg, 0.5 ml/kg): 240.5 ± 528.29 μU/ml
CCC(=O)c1ccccc1OCCCCCC(=O)O [Compound 27] | 12.9 ng/mL | – | – | 1.622 ± 0.265 IU/ml | Mean Peak Serum sCT (pg/ml ± SD) (SE) ([2]; dose volume 1 (ml)): 163 ± 106 pg/mL
CCC(=O)c1ccccc1OCCCCCCCC(=O)O [Compound 28] | – | 143.6 ± 44 s and 251.1 ± 109.34 s | – | 1.64 ± 0.45 IU/ml | Mean Peak Plasma LMWH Concentration ± SD [5, 9]: 1.43 ± 0.31 IU/ml; Mean Peak Serum sCT (pg/ml ± SD) (SE) ([2]; dose volume 1 (ml)): 138 ± 90 pg/mL
CCC(=O)c1ccccc1OCCCCCCCCCC(=O)O [Compound 29] | 0 ng/mL | 105.01 ± 115.28 s and 111.46 ± 108.58 s | – | – | –
COc1ccccc1OCCCCCCCC(=O)O [Compound 35] | – | 65.8 ± 35.5 s | 132.3 ± 154.5 μU/ml | – | –
CC(O)c1ccccc1OCCCCCCCC(=O)O (stereo not drawn) [Compound 36] | 0 ng/mL | – | – | – | Mean Peak Serum sCT (pg/ml ± SD) (SE) ([2]; dose volume 1 (ml)): 0 ± 62 pg/mL
CC(C)(O)c1ccccc1OCc1ccc(C(=O)O)cc1 [Compound 37] | 29 ng/mL | – | – | – | –
